This series in a line: Human HepG2 cell viability assay in 384 well format. It counts as toxicity, cell-based. Further details: dose 125 nL, time 70.5 hour; cytotoxicity at 70.5 h: concentration not given beside the values. As to conditions: HepG2 cells, read-out: Inhibition.

Turning to `CCN1CCN(Cc2coc(-c3cccc(F)c3)n2)CC1`, the cytotoxicity at 70.5 h was determined as 20.2%.
As for `CN(Cc1ccncc1)C(=O)NC1CCCN(c2ncccn2)C1` (configuration not stated), the cytotoxicity at 70.5 h was -1.22%.
To `CCN(CC)C(=O)Cn1ccc2cc(NC(C)=O)ccc21` belongs -3.27%; to `CCC(=O)Nc1ccc2c(ccn2CC(=O)N(CC)CC)c1`, -3.74%; to `CCN(CC)C(=O)Cn1ccc2cc(NC(=O)COC)ccc21`, -2.77%.
`Cc1ccc(C(=O)N(C)Cc2ccc3c(c2)OCO3)c(=O)[nH]1`: the cytotoxicity at 70.5 h is -4.29%.
In the case of `COC1CCN(C(=O)Cc2csc(-c3ccccc3)n2)CC1`, the cytotoxicity at 70.5 h is -5.23%.
For the molecule `CC(C)(C)n1cc(C(=O)N2CCN(Cc3cccnc3)CC2)cn1`, the cytotoxicity at 70.5 h is -7.69%.
For the molecule `COc1c(CNC(c2ccccc2F)c2nccn2C)c(C)nn1C` (configuration not stated), the cytotoxicity at 70.5 h is -4.51%.
The same measure for `CC(C)(C)n1cc(C(=O)N2CCN(Cc3ccncc3)CC2)cn1`: -2.1%; for `Cc1nc2ccccc2c(=O)n1CCCC(=O)N1CCNC(=O)CC1`: 2.21%.
To `Cc1nn(C)c(N(C)C)c1CNC1CCOc2c(Cl)cccc21` (configuration not stated) belongs 23.4%; to `CC(C)(C)n1cc(C(=O)N2CCN(Cc3ccco3)CC2)cn1`, -8.01%; to `CC(Cn1ccnc1)NC(=O)N1CCN(Cc2ccncc2)CC1` (configuration not stated), -2.15%.
The same measure for `CN1CCCC1CNC(=O)CCOc1ccc(Br)cc1` (configuration not stated): 2.76%; for `CN(CC(=O)N1CCCC1)C(=O)Cc1csc(-c2ncccn2)n1`: -1.25%; for `O=C(Nc1cnn(CCN2CCOCC2)c1)c1ccccc1Cl`: 0.235%.
Take `CCN(CC)C(=O)Cn1ccc2cc(NC(=O)NC3CC3)ccc21`: the cytotoxicity at 70.5 h was -3.42%.
To `O=C(CCc1ccc(-c2ccccc2)[nH]1)N1CCCC(n2ccnc2)C1` (configuration not stated) belongs -1.63%; to `N#Cc1cccnc1N1CCC(C2CCCCCN2C(N)=O)CC1` (configuration not stated), -3.78%.
As for `CNc1nc(CNC(=O)Nc2cccc(Cl)c2Cl)cs1`, the cytotoxicity at 70.5 h is -1.34%.
The same measure for `CCN(CC)C(=O)Cn1ccc2cc(NC(=O)C3CCCCC3)ccc21`: 14.5%; for `CC(Cn1ccnc1)NC(=O)N1CCN(Cc2ccco2)CC1` (configuration not stated): 0.365%.
The same measure for `CN1CCCC1CNC(=O)CCCOc1ccc(Br)cc1` (configuration not stated): -3.72%; for `Cc1cc(NC(=O)CN2CCn3c(nnc3C(C)C)C2)n(C)n1`: 34.7%.
With `Cc1cnn(CCNCc2csc(-c3ccccc3)n2)c1`, the cytotoxicity at 70.5 h worked out at 15.6%.
Regarding `Cc1nc(C2CCCN2CCCS(N)(=O)=O)no1` (configuration not stated), the cytotoxicity at 70.5 h is 17%.
The same measure for `CC(C(=O)N1CCCN(Cc2ccc(C#N)cc2)CC1)n1cncn1` (configuration not stated): -1.82%.
To `CCOC(=O)CN(C)C1CCc2ccccc21` (configuration not stated) belongs 26.7%; to `CCOCC(O)CN1CCN(C(=O)Cc2cccc(C)c2)CC1` (configuration not stated), -4.31%; to `CCn1c(CN2CCN(CCOC)CC2)nc2c(F)cccc21`, 2.86%.
As to `C=C(C)CN(CC)C(=O)CN(C)C1CCc2ccccc21` (configuration not stated), the cytotoxicity at 70.5 h is -2.32%.
The same measure for `CC(O)CNC(=O)NCc1ccc(N2CCNC(=O)C2)cc1` (configuration not stated): 2.26%.
The same measure for `Cc1cc(C)n(CC2CN(CC(=O)Nc3nncs3)CCO2)n1` (configuration not stated): 0.137%; for `Cc1cc(C[S+]([O-])CC(=O)NCC(C)C)no1` (configuration not stated): -1.65%.
As for `CN1CCN(C2CCN(CCOc3ccc(F)cc3)CC2)C1=O`, the cytotoxicity at 70.5 h amounted to 18.4%.
The same measure for `COc1cn(-c2ccccc2)nc1C(=O)NCCCN1CCCC(C)C1` (configuration not stated): -11.2%.
For `CC(C)OCCN1CCC(N2CCN(C)C2=O)CC1`, the cytotoxicity at 70.5 h was -2.99%.
To `Cc1cnn(CC2CN(Cc3cccc(OCC(N)=O)c3)CCO2)c1` (configuration not stated) belongs -5.97%; to `CCc1csc(C2CCCN(C(=O)c3c[nH]c(C)n3)C2)n1` (configuration not stated), -12%.
For the molecule `CCc1nc(C2CCCN2CC(=O)Nc2c(C)n[nH]c2C)no1` (configuration not stated), the cytotoxicity at 70.5 h turned out to be 5.42%.
Consider `Cc1nc(C)n(CC2CCCCN2Cc2nnc(C3CC3)o2)n1` (configuration not stated), for which the cytotoxicity at 70.5 h is 0.151%.
To `COCCN1CCC(NCc2cccc(F)c2)C1` (configuration not stated) belongs 26.3%; to `CC(C)c1nn(C)c(N(C)C)c1CNCC(O)c1ccccc1F` (configuration not stated), 17.9%.
The same measure for `O=C(NCC1CCOC1)c1csc(-c2cccc(Cl)c2)n1` (configuration not stated): 1.75%.
With `O=c1[nH]c(CN(Cc2ccco2)C2CCCC2)nc2ccccc12`, the cytotoxicity at 70.5 h was found to be 5.19%.
The same measure for `CCOc1ccc(Cl)c(C(=O)N2CCN(C(=O)c3ccoc3C)CC2)n1`: -1.97%.
To `Cn1ncc2c(=O)[nH]c(CN(Cc3ccco3)C3CCCC3)nc21` belongs -0.279%; to `CCOc1ccc(Cl)c(C(=O)N2CCN(c3cnccn3)CC2)n1`, 38.9%.
To `Cn1cc(CCC(=O)N2CCN(Cc3ccncc3)CC2)cn1` belongs 2.28%; to `Cc1ccc(C(O)CNCc2c(C(C)C)nn(C)c2N(C)C)cc1` (configuration not stated), 0.581%; to `CNC(=O)c1ccc(C(=O)N2CCCC(n3cc(C)cn3)C2)cn1` (configuration not stated), 40.9%.
`Cc1cnn(C2CCCN(C(=O)c3ccc(N(C)C)nn3)C2)c1` (configuration not stated): the cytotoxicity at 70.5 h was -10.7%.
For the molecule `CC(C)Cc1cc(NC(=O)c2ccc[nH]2)n(C)n1`, the cytotoxicity at 70.5 h is -11.1%.
On to `COC(=O)c1cccn1C1CCN(C(=O)c2cn[nH]c2C)CC1`, for which the cytotoxicity at 70.5 h is -1.46%.
`CCn1cnnc1C1CCN(C(=O)c2ccccc2OC)CC1`: the cytotoxicity at 70.5 h is -8.77%.
Consider `CN(c1cccnn1)C1CCN(C(=O)c2ccc3c(c2)COC3)CC1`, for which the cytotoxicity at 70.5 h was -13.7%.
The same measure for `c1ccc(CCN2CCN(c3ccc4nncn4n3)CC2)nc1`: -6.96%; for `O=C(c1ccc2c(c1)COC2)N1CCC(Nc2cccnn2)CC1`: -1.47%; for `CC(NC(=O)CNCCn1cccn1)c1ccc2c(c1)CCCC2` (configuration not stated): -4.4%.
The same measure for `CCc1nccn1C1CCCN(C(=O)c2ccc3[nH]c(=O)[nH]c3c2)C1` (configuration not stated): 29%.
The same measure for `Cc1oc(C(=O)O)cc1S(=O)(=O)Nc1cc(Cl)ccc1F`: -7.55%; for `Cc1cccc(NS(=O)(=O)c2cc(C(=O)O)oc2C)c1Cl`: 1.03%.
For the molecule `O=C(c1ccc2c(c1)COC2)N1CCC(Nc2ccccc2)CC1`, the cytotoxicity at 70.5 h was determined as 1.02%.
Turning to `CCn1cnnc1CNC(=O)N1CCN(c2cccs2)CC1`, the cytotoxicity at 70.5 h was 25.1%.
To `COc1cccc(C(=O)Nc2cc(CC(C)C)nn2C)c1` belongs 3.59%; to `FC(F)(F)COCCN1CCN(c2ccc3nncn3n2)CC1`, 1.24%.
To `COCCN1CCC(NCc2ccc(C#N)cc2)C1` (configuration not stated) belongs 34.1%; to `CCc1noc(CNc2ccc(C(=O)N3CCCC(C)C3)cc2C)n1` (configuration not stated), -10.5%; to `NC(=O)c1cc(C2CCCN(C(=O)CCc3cscn3)C2)n[nH]1` (configuration not stated), -11.7%.
For `O=C1NCCN1C1CCN(Cc2nc(-c3ccoc3)no2)CC1`, the cytotoxicity at 70.5 h came to 7.71%.
To `COc1c(C)cnc(CN2CCC(N(C)C(C)C(N)=O)CC2)c1C` (configuration not stated) belongs -2.64%; to `CCC(=O)N(C)C1CCN(Cc2ncc(C)c(OC)c2C)CC1`, -17.3%.
For the molecule `Cc1nn(C)c(C)c1C1COCCN1C(=O)c1n[nH]c2ccccc12` (configuration not stated), the cytotoxicity at 70.5 h is -10.8%.
To `CN(Cc1ccsc1)C(=O)c1cccc(F)c1` belongs -9.63%; to `CC(C)c1nnc(CN2CCCC2Cn2cncn2)o1` (configuration not stated), -11.1%; to `O=C(c1cccn1Cc1cccs1)N1CCN(C(=O)C2CC2)CC1`, -20.1%.
For `c1cnnc(NCC2CN(Cc3cccc4c3OCCO4)CCO2)c1` (configuration not stated), the cytotoxicity at 70.5 h is -20.6%.
Consider `O=C(CS(=O)(=O)c1ccccc1Cl)NC1CCCCNC1=O` (configuration not stated), for which the cytotoxicity at 70.5 h was -25.9%.
For `CC(C)N(C)S(=O)(=O)N(C)Cc1ccc2c(c1)OCO2`, the cytotoxicity at 70.5 h stood at 20.7%.
The same measure for `CC(Cn1cccn1)NC(=O)Nc1nccs1` (configuration not stated): -21.9%; for `CC(NC(=O)NCc1ccoc1)c1ccc2c(c1)CCC(=O)N2` (configuration not stated): 14.8%; for `CC(C)CN1CCC(C(=O)Nc2cc(C(F)(F)F)c[nH]c2=O)CC1`: -6.4%.
For the molecule `CCOCCCn1c(NC(=O)c2scnc2C)nc2ccccc21`, the cytotoxicity at 70.5 h turned out to be 30.8%.
On to `CC(C)CN1CCN(C(=O)Nc2cc(C(F)(F)F)c[nH]c2=O)CC1`, for which the cytotoxicity at 70.5 h was -17.9%.
`CCOCCCn1c(NC(=O)c2cnn(C)c2)nc2ccccc21`: the cytotoxicity at 70.5 h was -13.3%.
The same measure for `CCOCCCn1c(NC(=O)c2ccc(C)nc2)nc2ccccc21`: -5.03%; for `O=C(c1cccn1Cc1cccs1)N1CCN(C2CC2)CC1`: -10.4%.
To `CCn1c(C(=O)N2CCN(C(=O)COC)CC2)cc2ccccc21` belongs 26.3%.
The same measure for `COC(=O)C(NC(=O)c1ccco1)c1cc(F)ccc1F` (configuration not stated): -15.6%; for `CCOCC(O)CN1CCN(C(=O)c2cccnc2OC)CC1` (configuration not stated): -18%; for `CNc1cc2c(nn1)CCN(C(=O)c1cccc3c1OCO3)C2`: -16.7%.
In the case of `Cc1nn(C)c(C)c1C1COCCN1C(=O)c1ccccc1` (configuration not stated), the cytotoxicity at 70.5 h turned out to be 22.5%.
On to `COc1ccccc1CC(=O)NS(=O)(=O)c1ccc(C(N)=O)cc1`, for which the cytotoxicity at 70.5 h is -12.7%.
The same measure for `CC(CNc1cncc(-n2cccn2)n1)N(C)c1ccccc1` (configuration not stated): 1.39%.
As to `CN1N=C(C(=O)Nc2cc(F)ccc2OCC2CCCO2)CCC1=O` (configuration not stated), the cytotoxicity at 70.5 h was -20.2%.
The same measure for `Nc1cc2c(nn1)CCN(C(=O)c1cccc3c1OCCO3)C2`: -14.7%; for `CN(CC1(O)CCCCC1)C1CCCN(Cc2noc(C3CC3)n2)C1` (configuration not stated): 16.9%; for `Cc1cnn(C2CN(CC(=O)NCc3ccccn3)C2)c1`: 16.5%.
The same measure for `Cc1cc(CN(C)C2CCCN(Cc3noc(C4CC4)n3)C2)no1` (configuration not stated): 11.8%.
To `CCOc1nnc(CN2CCC(N(C)Cc3noc(C)n3)C2)s1` (configuration not stated) belongs -8.7%.
In the case of `Cc1nn(C)c(N(C)C)c1CNC1CCc2c(Cl)cccc21` (configuration not stated), the cytotoxicity at 70.5 h was -1.83%.

Source of the values: ChEMBL document CHEMBL3507680, “University of Dundee, Gates Library screen for HepG2 cell viability”.
